Laboratory results published in the kinase profiling compilation of Christmann-Franck et al. (2016).

Key:
Test in all cases: radiometric filter-binding kinase assay, Kinase HotSpot
Conditions in all cases: compound 0.5 µM; ATP 10 µM
[1] = biological target: SRMS (human) (UniProt Q9H3Y6)
[2] = biological target: NUAK1 (human) (UniProt O60285)
[3] = biological target: PLK1 (human) (UniProt P53350)
[4] = biological target: MKNK2 (human) (UniProt Q9HBH9)
[5] = biological target: DDR2 (human) (UniProt Q16832)
[6] = biological target: HIPK1 (human) (UniProt Q86Z02)
Chain of HIPK1 (human) (Q86Z02 whole entry, looked up): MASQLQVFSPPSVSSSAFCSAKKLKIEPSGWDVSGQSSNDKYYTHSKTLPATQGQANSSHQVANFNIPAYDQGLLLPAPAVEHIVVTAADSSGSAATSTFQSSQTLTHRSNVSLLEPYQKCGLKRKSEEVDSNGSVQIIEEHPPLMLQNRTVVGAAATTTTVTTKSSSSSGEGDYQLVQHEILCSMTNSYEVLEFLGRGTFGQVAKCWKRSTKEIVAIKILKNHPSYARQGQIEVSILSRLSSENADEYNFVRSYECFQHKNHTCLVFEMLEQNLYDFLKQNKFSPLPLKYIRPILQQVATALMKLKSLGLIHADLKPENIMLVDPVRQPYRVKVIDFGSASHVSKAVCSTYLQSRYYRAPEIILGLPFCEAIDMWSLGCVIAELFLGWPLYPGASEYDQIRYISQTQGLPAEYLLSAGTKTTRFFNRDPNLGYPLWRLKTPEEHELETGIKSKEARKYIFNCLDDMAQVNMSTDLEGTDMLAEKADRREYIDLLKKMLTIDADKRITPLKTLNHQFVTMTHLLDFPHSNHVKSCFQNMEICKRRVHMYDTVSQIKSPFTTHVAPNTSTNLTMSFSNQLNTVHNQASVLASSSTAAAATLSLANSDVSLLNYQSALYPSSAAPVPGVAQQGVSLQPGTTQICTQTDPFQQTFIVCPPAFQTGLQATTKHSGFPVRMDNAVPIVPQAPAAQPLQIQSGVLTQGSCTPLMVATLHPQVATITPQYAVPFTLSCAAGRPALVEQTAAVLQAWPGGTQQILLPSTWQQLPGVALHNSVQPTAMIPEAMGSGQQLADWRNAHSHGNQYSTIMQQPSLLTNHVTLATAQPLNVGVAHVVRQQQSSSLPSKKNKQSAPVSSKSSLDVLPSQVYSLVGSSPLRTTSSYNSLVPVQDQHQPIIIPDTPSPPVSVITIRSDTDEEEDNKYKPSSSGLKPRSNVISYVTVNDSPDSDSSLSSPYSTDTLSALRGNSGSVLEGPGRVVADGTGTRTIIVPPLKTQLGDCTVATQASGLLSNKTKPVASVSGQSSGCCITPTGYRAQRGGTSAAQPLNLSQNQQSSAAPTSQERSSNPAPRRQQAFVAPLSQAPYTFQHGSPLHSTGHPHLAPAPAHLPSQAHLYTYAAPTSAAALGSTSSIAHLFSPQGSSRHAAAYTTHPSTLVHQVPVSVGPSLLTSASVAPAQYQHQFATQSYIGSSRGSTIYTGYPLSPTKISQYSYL

[7] = biological target: CLK3 (human) (UniProt P49761)
[8] = biological target: PRKG2 (human) (UniProt Q13237)
[9] = biological target: PRKCB1 (human) (UniProt P05771)
[10] = biological target: MERTK (human) (UniProt Q12866)
[11] = biological target: PHKG1 (human) (UniProt Q16816)
[12] = biological target: HCK (human) (UniProt P08631)
[13] = biological target: ROS1 (human) (UniProt P08922)
[14] = biological target: MUSK (human) (UniProt O15146)
[15] = biological target: PLK3 (human) (UniProt Q9H4B4)
[16] = biological target: MAP3K2 (human) (UniProt Q9Y2U5)
[17] = biological target: MAP4K4 (human) (UniProt O95819)
Chain of MAP4K4 (human) (O95819 whole entry, looked up): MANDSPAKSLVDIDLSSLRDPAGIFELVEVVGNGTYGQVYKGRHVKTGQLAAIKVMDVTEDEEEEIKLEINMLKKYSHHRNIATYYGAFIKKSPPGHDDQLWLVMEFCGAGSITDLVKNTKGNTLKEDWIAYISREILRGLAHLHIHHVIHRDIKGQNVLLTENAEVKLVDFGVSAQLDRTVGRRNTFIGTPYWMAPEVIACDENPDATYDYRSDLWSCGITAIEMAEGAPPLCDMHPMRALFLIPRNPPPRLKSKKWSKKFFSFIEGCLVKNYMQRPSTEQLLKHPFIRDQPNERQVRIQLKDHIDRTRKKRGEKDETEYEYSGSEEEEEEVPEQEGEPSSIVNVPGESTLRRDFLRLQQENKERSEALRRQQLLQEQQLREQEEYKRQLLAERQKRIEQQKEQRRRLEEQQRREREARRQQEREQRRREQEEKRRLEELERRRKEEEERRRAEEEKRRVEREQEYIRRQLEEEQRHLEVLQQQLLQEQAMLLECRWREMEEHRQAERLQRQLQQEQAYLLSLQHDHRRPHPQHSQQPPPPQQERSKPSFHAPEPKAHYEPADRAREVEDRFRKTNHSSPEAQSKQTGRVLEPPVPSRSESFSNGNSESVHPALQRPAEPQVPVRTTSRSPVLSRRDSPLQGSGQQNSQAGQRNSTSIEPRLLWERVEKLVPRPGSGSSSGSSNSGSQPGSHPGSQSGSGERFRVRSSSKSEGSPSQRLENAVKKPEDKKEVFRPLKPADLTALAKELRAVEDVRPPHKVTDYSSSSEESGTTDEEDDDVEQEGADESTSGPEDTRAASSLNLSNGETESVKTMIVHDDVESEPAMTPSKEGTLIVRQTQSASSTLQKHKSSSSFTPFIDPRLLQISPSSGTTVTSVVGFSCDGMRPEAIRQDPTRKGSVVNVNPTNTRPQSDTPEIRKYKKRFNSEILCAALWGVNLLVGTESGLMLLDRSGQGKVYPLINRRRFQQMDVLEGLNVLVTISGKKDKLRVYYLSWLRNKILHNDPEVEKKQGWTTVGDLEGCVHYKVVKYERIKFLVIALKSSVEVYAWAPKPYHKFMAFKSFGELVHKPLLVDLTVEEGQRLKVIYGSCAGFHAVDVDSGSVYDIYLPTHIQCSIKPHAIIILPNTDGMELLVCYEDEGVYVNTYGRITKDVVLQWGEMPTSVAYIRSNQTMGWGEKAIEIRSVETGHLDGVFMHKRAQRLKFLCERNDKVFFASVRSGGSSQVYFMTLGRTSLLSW

[18] = biological target: LTK (human) (UniProt P29376)
Chain of LTK (human) (P29376 whole entry, looked up): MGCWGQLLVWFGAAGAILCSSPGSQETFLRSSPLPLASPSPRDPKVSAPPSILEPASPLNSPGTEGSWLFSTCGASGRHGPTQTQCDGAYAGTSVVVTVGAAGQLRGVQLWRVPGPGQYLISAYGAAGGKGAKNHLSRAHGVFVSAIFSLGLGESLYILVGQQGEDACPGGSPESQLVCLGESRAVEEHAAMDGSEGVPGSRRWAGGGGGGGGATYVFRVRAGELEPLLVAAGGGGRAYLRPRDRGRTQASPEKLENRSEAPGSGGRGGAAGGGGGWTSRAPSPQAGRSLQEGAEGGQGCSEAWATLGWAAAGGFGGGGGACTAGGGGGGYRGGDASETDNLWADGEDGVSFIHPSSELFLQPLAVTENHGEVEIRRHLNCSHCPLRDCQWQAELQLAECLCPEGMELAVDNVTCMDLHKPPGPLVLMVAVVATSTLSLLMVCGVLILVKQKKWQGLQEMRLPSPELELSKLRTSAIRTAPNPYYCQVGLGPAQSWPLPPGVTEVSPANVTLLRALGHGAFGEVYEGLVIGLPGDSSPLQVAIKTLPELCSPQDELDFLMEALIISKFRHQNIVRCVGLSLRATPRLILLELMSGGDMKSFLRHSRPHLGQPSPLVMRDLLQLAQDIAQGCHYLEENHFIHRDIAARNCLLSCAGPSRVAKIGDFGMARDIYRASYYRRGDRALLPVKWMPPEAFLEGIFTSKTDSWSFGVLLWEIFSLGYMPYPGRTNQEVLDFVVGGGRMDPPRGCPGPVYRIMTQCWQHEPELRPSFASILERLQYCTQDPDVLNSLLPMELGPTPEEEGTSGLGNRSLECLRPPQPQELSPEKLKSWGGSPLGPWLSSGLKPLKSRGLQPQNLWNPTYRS

[19] = biological target: DYRK4 (human) (UniProt Q9NR20)
Chain of DYRK4 (human) (Q9NR20 whole entry, looked up): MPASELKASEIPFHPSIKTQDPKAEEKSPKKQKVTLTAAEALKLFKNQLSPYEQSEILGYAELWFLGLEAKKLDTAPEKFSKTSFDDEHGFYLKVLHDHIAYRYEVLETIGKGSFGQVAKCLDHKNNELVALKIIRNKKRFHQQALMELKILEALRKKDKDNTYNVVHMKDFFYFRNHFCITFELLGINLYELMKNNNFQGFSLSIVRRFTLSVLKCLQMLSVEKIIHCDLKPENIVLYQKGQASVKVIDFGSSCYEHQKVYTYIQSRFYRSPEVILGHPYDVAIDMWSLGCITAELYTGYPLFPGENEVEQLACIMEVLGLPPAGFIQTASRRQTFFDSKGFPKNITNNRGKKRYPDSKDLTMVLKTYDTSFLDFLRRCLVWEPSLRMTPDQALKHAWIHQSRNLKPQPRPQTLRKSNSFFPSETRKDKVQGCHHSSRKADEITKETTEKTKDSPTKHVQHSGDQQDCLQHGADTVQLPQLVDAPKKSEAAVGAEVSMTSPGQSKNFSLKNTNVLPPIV

[20] = biological target: PRKX (human) (UniProt P51817)
[21] = biological target: STK10 (human) (UniProt O94804)
[22] = biological target: MINK1 (human) (UniProt Q8N4C8)
[23] = biological target: FGFR4 (human) (UniProt P22455)
[24] = biological target: WNK3 (human) (UniProt Q9BYP7)
[25] = biological target: INSRR (human) (UniProt P14616)
[26] = biological target: ACVR1 (human) (UniProt Q04771)
[27] = biological target: EPHA8 (human) (UniProt P29322)
[28] = system: MAP2K6 (human), P52564 [S207E/T211E]
[29] = biological target: PIM2 (human) (UniProt Q9P1W9)
[30] = biological target: GSK3B (human) (UniProt P49841)
[31] = biological target: EPHA4 (human) (UniProt P54764)
[32] = biological target: CHEK2 (human) (UniProt O96017)
[33] = biological target: TGFBR2 (human) (UniProt P37173)
[34] = biological target: PAK2 (human) (UniProt Q13177)
[35] = biological target: CAMK2B (human) (UniProt Q13554)
[36] = biological target: CSF1R (human) (UniProt P07333)
Chain of CSF1R (human) (P07333 whole entry, looked up): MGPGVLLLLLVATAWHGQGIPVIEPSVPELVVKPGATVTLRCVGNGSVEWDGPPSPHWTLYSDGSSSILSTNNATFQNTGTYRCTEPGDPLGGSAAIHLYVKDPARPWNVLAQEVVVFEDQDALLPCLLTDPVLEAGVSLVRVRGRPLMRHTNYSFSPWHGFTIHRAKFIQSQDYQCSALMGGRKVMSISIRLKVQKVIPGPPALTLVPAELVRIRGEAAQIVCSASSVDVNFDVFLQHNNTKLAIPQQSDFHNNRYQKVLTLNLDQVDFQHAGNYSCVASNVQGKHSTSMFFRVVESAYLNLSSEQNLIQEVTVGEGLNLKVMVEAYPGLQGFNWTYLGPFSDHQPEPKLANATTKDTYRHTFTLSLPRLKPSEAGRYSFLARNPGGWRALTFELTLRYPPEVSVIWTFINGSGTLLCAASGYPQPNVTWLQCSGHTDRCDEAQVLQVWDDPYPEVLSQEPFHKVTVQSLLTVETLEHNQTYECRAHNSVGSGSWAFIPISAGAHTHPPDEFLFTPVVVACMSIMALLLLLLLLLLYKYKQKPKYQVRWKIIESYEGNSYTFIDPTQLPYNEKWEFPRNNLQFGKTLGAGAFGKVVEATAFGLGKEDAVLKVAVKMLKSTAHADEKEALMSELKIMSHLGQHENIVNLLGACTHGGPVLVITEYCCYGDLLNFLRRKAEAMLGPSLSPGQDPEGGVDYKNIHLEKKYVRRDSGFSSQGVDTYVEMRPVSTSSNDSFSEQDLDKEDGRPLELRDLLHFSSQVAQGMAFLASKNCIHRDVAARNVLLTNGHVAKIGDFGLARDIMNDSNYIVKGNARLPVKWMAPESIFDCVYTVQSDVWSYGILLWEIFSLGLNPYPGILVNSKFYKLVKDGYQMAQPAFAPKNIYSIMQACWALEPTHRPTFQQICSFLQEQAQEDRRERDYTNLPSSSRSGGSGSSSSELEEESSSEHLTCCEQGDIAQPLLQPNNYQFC

[37] = biological target: MELK (human) (UniProt Q14680)
[38] = biological target: MAPK13 (human) (UniProt O15264)
[39] = biological target: PRKCI (human) (UniProt P41743)
[40] = biological target: CDK1 CCNA2 (human) (UniProt P06493+P20248)
[41] = biological target: EPHA2 (human) (UniProt P29317)
[42] = biological target: FES (human) (UniProt P07332)

COc1cc(Nc2c(C#N)cnc3cc(OCCCN4CCN(C)CC4)c(OC)cc23)c(Cl)cc1Cl
residual activity [1]: 90.6%
residual activity [2]: 11.4%
residual activity [3]: 93.8%
residual activity [4]: 98.7%
residual activity [5]: 105%
residual activity [6]: 96.3%
residual activity [7]: 94.9%
residual activity [8]: 109%
residual activity [9]: 99.8%
residual activity [10]: 28.9%
residual activity [11]: 52.1%
residual activity [12]: 11.9%
residual activity [13]: 95.4%
residual activity [14]: 81.7%
residual activity [15]: 98.5%
residual activity [16]: 23.5%
residual activity [17]: 1.03%
residual activity [18]: 57.7%
residual activity [19]: 97.9%
residual activity [20]: 110%
residual activity [21]: 12.6%
residual activity [22]: 1.21%
residual activity [23]: 94.1%
residual activity [24]: 91.8%
residual activity [25]: 36.9%
residual activity [26]: 93.3%
residual activity [27]: 10.5%
residual activity [28]: 93.4%
residual activity [29]: 111%
residual activity [30]: 99.9%
residual activity [31]: 27%
residual activity [32]: 21.7%
residual activity [33]: 95.7%
residual activity [34]: 69.4%
residual activity [35]: 86.2%
residual activity [36]: 43.1%
residual activity [37]: 25.8%
residual activity [38]: 91.2%
residual activity [39]: 99.4%
residual activity [40]: 96.9%

NC(=O)c1cccc(-c2cc(Nc3ccc(OC(F)(F)F)cc3)ncn2)c1
residual activity [1]: 93.4%
residual activity [2]: 96.7%
residual activity [3]: 97.7%
residual activity [4]: 95.4%
residual activity [5]: 108%
residual activity [6]: 102%
residual activity [7]: 104%
residual activity [8]: 96.4%
residual activity [9]: 97.4%
residual activity [10]: 98.1%
residual activity [11]: 99.2%
residual activity [12]: 92.9%
residual activity [41]: 94.9%
residual activity [14]: 95.9%
residual activity [15]: 96.9%
residual activity [16]: 79.5%
residual activity [17]: 104%
residual activity [42]: 96.3%
residual activity [18]: 111%
residual activity [19]: 96.3%
residual activity [20]: 105%
residual activity [21]: 101%
residual activity [23]: 92.9%
residual activity [24]: 105%
residual activity [25]: 90.7%
residual activity [26]: 99.4%
residual activity [27]: 94.5%
residual activity [28]: 101%
residual activity [29]: 115%
residual activity [30]: 110%
residual activity [31]: 94.4%
residual activity [32]: 101%
residual activity [33]: 94.9%
residual activity [34]: 106%
residual activity [35]: 100%
residual activity [36]: 94.1%
residual activity [37]: 94.5%
residual activity [38]: 98.1%
residual activity [39]: 99.6%
residual activity [40]: 103%

COc1ccc(Cl)cc1NC(=O)Nc1cc(C)nc2ccccc12
residual activity [1]: 97.6%
residual activity [3]: 96.9%
residual activity [4]: 90.3%
residual activity [5]: 97.7%
residual activity [6]: 97.2%
residual activity [7]: 97.5%
residual activity [8]: 105%
residual activity [9]: 105%
residual activity [10]: 93.3%
residual activity [11]: 102%
residual activity [12]: 101%
residual activity [13]: 92.5%
residual activity [41]: 100%
residual activity [14]: 93.3%
residual activity [15]: 100%
residual activity [16]: 98%
residual activity [17]: 84.7%
residual activity [42]: 101%
residual activity [18]: 87.3%
residual activity [19]: 98.9%
residual activity [20]: 98%
residual activity [21]: 90.9%
residual activity [22]: 88.7%
residual activity [23]: 102%
residual activity [24]: 99.9%
residual activity [25]: 100%
residual activity [26]: 76.2%
residual activity [27]: 97.8%
residual activity [28]: 89.9%
residual activity [29]: 99.8%
residual activity [30]: 91.6%
residual activity [31]: 104%
residual activity [32]: 101%
residual activity [33]: 111%
residual activity [34]: 97.2%
residual activity [35]: 103%
residual activity [36]: 94.8%
residual activity [37]: 106%
residual activity [38]: 108%
residual activity [39]: 99.4%
residual activity [40]: 104%
